The target of this test is T1, Adenosine receptor A2b (Homo sapiens, UniProt P29275).
T1 sequence (P29275 whole entry): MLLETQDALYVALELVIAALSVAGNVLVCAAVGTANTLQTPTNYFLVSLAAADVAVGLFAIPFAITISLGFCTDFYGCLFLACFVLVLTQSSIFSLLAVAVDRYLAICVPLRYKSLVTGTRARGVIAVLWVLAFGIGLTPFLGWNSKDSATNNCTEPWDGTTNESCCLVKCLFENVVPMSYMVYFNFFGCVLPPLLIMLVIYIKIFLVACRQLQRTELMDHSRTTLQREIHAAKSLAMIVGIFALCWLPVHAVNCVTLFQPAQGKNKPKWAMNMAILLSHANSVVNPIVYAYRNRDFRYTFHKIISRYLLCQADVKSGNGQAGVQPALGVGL
As to the kind of experiment: Displacement of [3H]DPCPX from human adenosine A2B receptor expressed in HEK cell membrane incubated for 30 mins by microplate beta scintillation counting based radioligand inhibition assay.

Usually Ki stands for the dissociation constant of the complex between target and ligand, obtained from inhibition or displacement. Low readings indicate tighter binding, high ones weaker binding.

Consider `CCNC(=O)[C@H]1O[C@@H](n2cnc3c(NCCCCc4ccccc4)ncnc32)[C@H](O)[C@@H]1O`, for which the Ki is 3.33 µM.

The values are drawn from BindingDB's records for doi:10.1016/j.ejmech.2021.113607 (Institute of Medical Biology Pas, 2021).
